These results are taken from patent US11364275B2, “Linear lipopeptide paenipeptins and methods of using the same” (priority 2017, dated 2022).

Data set [1] has as its system Acinetobacter baumannii ATCC 19606. It counts as cell-based.
Procedure: (§2) The minimum inhibitory concentration (MIC) of paenipeptin analogues was determined using the broth microdilution method (Wirker, M. A. Methods for Dilution Antimicrobial Susceptibility Tests for Bacteria that Grow Aerobically: Approved Standard M07-A8; Clinical and Laboratory Standards Institute, Wayne, Pa., 2009). Seven reference strains (Acinetobacter baumannii ATCC 19606, Escherichia coli ATCC 25922, Klebsiella pneumoniae ATCC 13883, Pseudomonas aeruginosa ATCC 27853, Enterococcus faecium ATCC 19434, Staphylococcus aureus ATCC 29213 and methicillin-resistant S. aureus ATCC 43300) were subjected to MIC testing.
(§3) Paenipeptin analogues were two-fold diluted in tryptic soy broth (TSB; Becton Dickinson) and mixed with an equal volume of bacterial suspensions in TSB containing approximately 1.5×10^5 colony-forming units (CFU)/mL in a clear UV-sterilized 96-well microtiter plate (NBS, Corning Inc., Corning, N.Y.). […] The microtiter plate was incubated at 37° C. for 18-20 h.
Data set [2] shares this test system. As to the kind of experiment: MIC of antibiotics with or without paenipeptin analogues (potentiation). It counts as cell-based. The settings on record: A. baumannii ATCC 19606; for Sensitization factor (rifampicin): MIC without / with 4 μg/mL paenipeptin; for MIC of antibiotic at 0 μg/ml paenipeptin analogue: antibiotic alone. An excerpt: (§1) Gram-negative bacteria, including Acinetobacter and Klebsiella, are intrinsically resistant to the hydrophobic antibiotic rifampicin.

The test system of data set [3] is Klebsiella pneumoniae ATCC 13883. The data set is described as above. It counts as cell-based. Particulars: K. pneumoniae ATCC 13883; for Sensitization factor (rifampicin): MIC without / with 4 μg/mL paenipeptin; for MIC of antibiotic at 0 μg/ml paenipeptin analogue: antibiotic alone.
Excerpt: as §1

Data set [4] relates to Pseudomonas aeruginosa ATCC 27853. The format is cell-based.
Procedure: as §2, §3
Data set [5] deals with Enterococcus faecium ATCC 19434. The format is cell-based.
Procedure: as §2, §3
For the next data set, the system named is rabbit red blood cells. As to the kind of experiment: Hemolytic activity. The format is cell-based. Particulars: for Hemolysis: relative to Triton X-100. The procedure: Hemolytic activity was evaluated using defibrinated rabbit blood in a 96-well plate as described previously. A nonionic surfactant Triton X-100, which is capable of lysing red blood cells (RBCs), was used at 0.1% as a positive control. Briefly, rabbit blood (Hardy Diagnostics, Santa Maria, Calif.) was diluted with phosphate buffered saline (PBS; pH 7.2) at a 1:19 ratio (v/v) and free hemoglobin was removed by washing RBCs and centrifugation four times at 1,000×g at 4° C. for 5 min. Aliquots (50 μL) of washed RBCs were incubated with 150 μL two-fold dilutions of paenipeptin analogues at final concentrations of 16-128 μg/mL at 37° C. for 30 min in a microtiter plate (NBS, Corning Inc.). After incubation, treated RBCs were gently mixed by repeated pipetting. Aliquots (20 μL) of the cell suspension were mixed with 200 μL PBS in a new 96-well plate and centrifuged at 2,204×g for 10 min. The supernatant was transferred to a new 96-well plate for absorbance measurement at 415 nm using a Cell Imaging Multimode Reader (Cytation 3, BioTek; Winooski, Vt.). The percent hemolysis observed after exposure to each paenipeptin analogue was calculated relative to Triton X-100.

The subject of data set [6] is Escherichia coli ATCC 25922. It counts as cell-based.
In data set [7] the test system is Klebsiella pneumoniae ATCC 13883. The format is cell-based.
Procedure: as §2, §3
Data set [8] relates to Staphylococcus aureus ATCC 29213. It counts as cell-based.
The test system of data set [9] is methicillin-resistant S. aureus ATCC 43300. It counts as cell-based, Staphylococcus aureus.
Procedure: as §2, §3

Where two headings read alike, the source gives them in different places. Where a SMILES comes first, the peptide text is derived from it. [ ]: non-standard residue; d: D form. The star is where a group is joined. ξ: configuration not given here. Heptanoyl = CCCCCCC(=O)*; Octanoyl = CCCCCCCC(=O)*; Orn = NCCC[C@H](N)C(=O)O; Dab = NCC[C@H](N)C(=O)O; ξDab = NCCC(N)C(=O)O; Bz = O=C(c1ccccc1)* Bounds are passed on as bounds.

As a reminder, the MIC is the lowest concentration found to suppress growth. Low values mean greater potency, high ones weaker potency. For `CC[C@H](C)[C@H](NC(=O)[C@H](CCN)NC(=O)c1ccccc1)C(=O)N[C@@H](CCN)C(=O)N[C@H](Cc1ccccc1)C(=O)N[C@@H](CC(C)C)C(=O)N[C@@H](CCN)C(=O)N[C@@H](C(=O)N[C@@H](CC(C)C)C(=O)N[C@@H](CO)C(N)=O)C(C)C` [Analogue 14] (Bz-[Dab]I[Dab][dF]L[Dab][dV]LS-NH2), the minimal inhibitory concentration (MIC) in data set [1] (A. baumannii ATCC 19606, TSB) is more than 32 µg/mL; in [4] (P. aeruginosa ATCC 27853, TSB), 8 to 32 µg/mL; in data set [5] (E. faecium ATCC 19434, TSB), more than 32 µg/mL; in data set [6] (E. coli ATCC 25922, TSB), 16 to 32 µg/mL; in [7] (K. pneumoniae ATCC 13883, TSB), more than 32 µg/mL; in [8] (S. aureus ATCC 29213, TSB), more than 32 µg/mL. For the same compound, the MIC in [9] (S. aureus ATCC 43300, TSB) is more than 32 µg/mL. Further, the “MIC of rifampicin at 2 μg/mL of paenipeptin analogue” value came out at 0.03125 μg/ml in [2] and 0.0078 μg/ml in [3]. Besides, the “Sensitization factor (rifampicin)” value in data set [2] was 2,048-4,096; in data set [3] it was 4,096-8,192. Further, the “MIC of rifampicin at 4 μg/mL of paenipeptin analogue” value in data set [3] was 0.00195-0.0039 μg/ml. Besides, the Hemolysis came out at 0.22 ± 0.17% in the data set on rabbit red blood cells (16 μg/mL), 0.71 ± 0.82% in the data set with rabbit red blood cells (32 μg/mL), 1.14 ± 1.05% in the data set with rabbit red blood cells (64 μg/mL) and 0.70 ± 0.34% in the data set on rabbit red blood cells (128 μg/mL).
For the compound `CCCCCCCC(=O)N[C@@H](CCCN)C(=O)N[C@H](C(=O)N[C@@H](CCCN)C(=O)N[C@H](Cc1ccccc1)C(=O)N[C@@H](CC(C)C)C(=O)N[C@@H](CCCN)C(=O)N[C@@H](C(=O)N[C@@H](CC(C)C)C(=O)N[C@@H](CO)C(N)=O)C(C)C)[C@@H](C)CC` [Analogue 11] (Octanoyl-[Orn]I[Orn][dF]L[Orn][dV]LS-NH2), the “MIC of rifampicin at 2 μg/mL of paenipeptin analogue” value in data set [2] is given as 0.0625 μg/ml. Moreover, the “MIC of rifampicin at 4 μg/mL of paenipeptin analogue” value in [2] was 0.0156-0.0313 μg/ml; in data set [3], 0.0078-0.0156 μg/ml. For the same compound, the “Sensitization factor (rifampicin)” value is listed as 512-1,024 in data set [2] and 1,024-2,048 in data set [3]. Also, the MIC in [5] (ATCC 19434), in [7] (ATCC 13883) and in data set [8] (ATCC 29213) was more than 32 µg/mL each time. The Hemolysis in the data set with rabbit red blood cells (16 μg/mL) was found to be 0.86 ± 0.72%; in the data set on rabbit red blood cells (32 μg/mL), 0.44 ± 0.30%; in the data set on rabbit red blood cells (64 μg/mL) it was 0.69 ± 0.64%; in the data set with rabbit red blood cells (128 μg/mL), 1.12 ± 0.47%.
In the case of `CCCCCCCC(=O)N[C@@H](CCN)C(=O)NC(CCN)C(=O)N[C@@H](CCN)C(=O)N[C@H](Cc1ccccc1)C(=O)N[C@@H](CC(C)C)C(=O)N[C@@H](CCN)C(=O)N[C@@H](C(=O)N[C@@H](CC(C)C)C(=O)N[C@@H](CCN)C(N)=O)C(C)C` (some centres unmarked) [Analogue 10] (Octanoyl-[Dab][ξDab][Dab][dF]L[Dab][dV]L[Dab]-NH2), the MIC in data set [1] (ATCC 19606) is more than 32 µg/mL; in data set [4] (ATCC 27853), 16 to 32 µg/mL; in [5] (ATCC 19434), more than 32 µg/mL; in data set [6] (ATCC 25922), more than 32 µg/mL; in data set [7] (ATCC 13883), more than 32 µg/mL; in data set [8] (ATCC 29213) it was not below 32 µg/mL. In addition, the MIC in [9] (ATCC 43300) was more than 32 µg/mL. The “MIC of rifampicin at 4 μg/mL of paenipeptin analogue” value in [2] is recorded as 0.0313-0.0625 μg/ml; in [3] it was 0.0625 μg/ml. The “Sensitization factor (rifampicin)” value in data set [2] is recorded as 256-512; in [3], 256. Moreover, in data set [3], the “MIC of rifampicin at 2 μg/mL of paenipeptin analogue” value was 0.0625-0.125 μg/ml. Besides, the Hemolysis in the data set with rabbit red blood cells (16 μg/mL) was 0.37 ± 0.62%; in the data set with rabbit red blood cells (32 μg/mL), 0.38 ± 0.62%; with rabbit red blood cells (64 μg/mL), 0.41 ± 0.53%; in the data set on rabbit red blood cells (128 μg/mL) it was 0.80 ± 0.40%.
On to `CCCCCCC(=O)N[C@@H](CCN)C(=O)N[C@H](C(=O)N[C@@H](CCN)C(=O)N[C@H](Cc1ccccc1)C(=O)N[C@@H](CC(C)C)C(=O)N[C@@H](CCN)C(=O)N[C@@H](C(=O)N[C@@H](CC(C)C)C(=O)N[C@@H](CO)C(N)=O)C(C)C)C(C)C` [Analogue 2] (Heptanoyl-[Dab]V[Dab][dF]L[Dab][dV]LS-NH2), for which the MIC in [1] (ATCC 19606), in data set [5] (ATCC 19434), in data set [7] (ATCC 13883), in [8] (ATCC 29213) and in data set [9] (ATCC 43300) was more than 32 µg/mL in each case. Besides, the “MIC of rifampicin at 2 μg/mL of paenipeptin analogue” value in [2] is 0.125 μg/ml; in [3] it was 0.0156 μg/ml. Besides, the “MIC of rifampicin at 4 μg/mL of paenipeptin analogue” value in data set [2] was 0.0313-0.0625 μg/ml; in data set [3] it was 0.0039 μg/ml. The “Sensitization factor (rifampicin)” value is on record as 256-512 in data set [2] and 4,096 in data set [3]. Further, the Hemolysis is listed as −0.17 ± 0.19% in the data set on rabbit red blood cells (16 μg/mL), 0.32 ± 0.74% in the data set with rabbit red blood cells (32 μg/mL), 0.79 ± 0.63% in the data set on rabbit red blood cells (64 μg/mL) and 0.95 ± 0.45% with rabbit red blood cells (128 μg/mL).
In the case of `CC1(C)S[C@@H]2[C@H](NC(=O)[C@H](N)c3ccccc3)C(=O)N2[C@H]1C(=O)O` [Ampicillin, ampicillin, reference compound], the “MIC of antibiotic at 0 μg/ml paenipeptin analogue” value in data set [2] is more than 32 μg/ml; in data set [3], 32 μg/ml.
As for `CCCCCCC(=O)N[C@@H](CCN)C(=O)N[C@H](C(=O)N[C@@H](CCN)C(=O)N[C@H](Cc1ccccc1)C(=O)N[C@@H](CC(C)C)C(=O)N[C@@H](CCN)C(=O)N[C@@H](C(=O)N[C@@H](CC(C)C)C(=O)N[C@@H](CO)C(N)=O)C(C)C)[C@@H](C)CC` [Analogue 3] (Heptanoyl-[Dab]I[Dab][dF]L[Dab][dV]LS-NH2), the minimum inhibitory concentration (MIC) in data set [1] (ATCC 19606), in data set [5] (ATCC 19434), in [8] (ATCC 29213) and in data set [9] (ATCC 43300) was more than 32 µg/mL throughout. The entries for the “MIC of rifampicin at 2 μg/mL of paenipeptin analogue” value in data set [2] and in [3] were 0.0078 μg/ml and 0.0039 μg/ml, respectively. Also, in [2], the “Sensitization factor (rifampicin)” value is given as 4,096. The “MIC of rifampicin at 4 μg/mL of paenipeptin analogue” value in [3] was <0.00098-0.00195 μg/ml. The Hemolysis in the data set with rabbit red blood cells (16 μg/mL) was 0.18 ± 0.54%; in the data set on rabbit red blood cells (32 μg/mL), 0.78 ± 0.30%; with rabbit red blood cells (64 μg/mL), 1.18 ± 0.68%; in the data set on rabbit red blood cells (128 μg/mL), 1.77 ± 0.81%. For the same compound, in the data set with rabbit red blood cells (128 μg/mL), the “hemolytic activity (in words)” value is “little hemolysis”.
For `CCCCCCC(=O)N[C@@H](CCN)C(=O)N[C@@H](Cc1ccccc1)C(=O)N[C@@H](CCN)C(=O)N[C@H](Cc1ccccc1)C(=O)N[C@@H](CC(C)C)C(=O)N[C@@H](CCN)C(=O)N[C@@H](C(=O)N[C@@H](CC(C)C)C(=O)N[C@@H](CO)C(N)=O)C(C)C` [Analogue 4] (Heptanoyl-[Dab]F[Dab][dF]L[Dab][dV]LS-NH2), the MIC in data set [4] (ATCC 27853) is 2 to 4 µg/mL; in data set [5] (ATCC 19434), more than 32 µg/mL; in [6] (ATCC 25922), 1 to 4 µg/mL; in [8] (ATCC 29213), not below 32 µg/mL. Further, the Hemolysis is 0.28 ± 1.11% in the data set on rabbit red blood cells (16 μg/mL), 0.49 ± 1.22% in the data set on rabbit red blood cells (32 μg/mL), 0.60 ± 1.35% with rabbit red blood cells (64 μg/mL) and 1.28 ± 1.65% with rabbit red blood cells (128 μg/mL).
For `CC[C@H]1OC(=O)[C@H](C)[C@@H](O[C@H]2C[C@@](C)(OC)[C@@H](O)[C@H](C)O2)[C@H](C)[C@@H](O[C@@H]2O[C@H](C)C[C@H](N(C)C)[C@H]2O)[C@](C)(O)C[C@@H](C)C(=O)[C@H](C)[C@@H](O)[C@]1(C)O` [Erythromycin, erythromycin, reference compound], the “MIC of antibiotic at 0 μg/ml paenipeptin analogue” value in data set [2] is 32 μg/ml; in data set [3], more than 32 μg/ml.
Consider `CN[C@H](CC(C)C)C(=O)N[C@H]1C(=O)N[C@@H](CC(N)=O)C(=O)N[C@H]2C(=O)N[C@H]3C(=O)N[C@H](C(=O)N[C@H](C(=O)O)c4cc(O)cc(O)c4-c4cc3ccc4O)[C@H](O)c3ccc(c(Cl)c3)Oc3cc2cc(c3O[C@@H]2O[C@H](CO)[C@@H](O)[C@H](O)[C@H]2O[C@H]2C[C@](C)(N)[C@H](O)[C@H](C)O2)Oc2ccc(cc2Cl)[C@H]1O` [Vancomycin, vancomycin, reference compound], for which the “MIC of antibiotic at 0 μg/ml paenipeptin analogue” value in [2] and in data set [3] was more than 32 μg/ml each time.
